| melting point [°C] | Structure (SMILES) |
| --- | --- |
| 255 to 257 | Cc1ccc(C(=O)C2=C(O)C(=O)N(c3ccc(C(F)(F)F)cn3)C2c2ccc(C(C)C)cc2)cc1 (stereo not given) |
| 123 to 125 | CCC(=O)C=Cc1ccc(OCc2ccccc2)cc1 |
| 103 | COc1ccc2nc(CBr)ccc2c1 |
| 114 to 115 | CCOC(=O)CCc1n[nH]c(SCc2ccc(OCc3nc(-c4ccccc4)oc3C)cc2)n1 |
| 127 to 130 | Cc1c(-c2ccc(O)cc2)n(C(=O)c2ccc(OCCN3CCCCC3)cc2)c2ccc(O)cc12 |
| 150 to 152 | O=c1nc(-c2ccccc2)c2cc([N+](=O)[O-])ccc2n1CC1CCCO1 (stereo not given) |
| 38.9 | COc1cc(F)ccc1Nc1ccc2c(c1)OCc1cc(N)ccc1C2=O |
| 112 to 115 | COc1cc(N)ccc1-c1sc(C)nc1C |
| 117 to 119 | CC(C)Oc1ccc(S(=O)(=O)c2c(O)cccc2F)c([N+](=O)[O-])c1 |
| 142 to 150 | COCCNC(=O)c1cccc(NC(=O)Oc2ccccc2)c1 |
| 64 | CCCCOc1cc(CCC(=O)O)ccc1CCCc1ccc(OS(=O)(=O)CC)c(OC)c1 |
| 189 to 191 | COc1c(Cl)ccc(-c2cc(N)c(Cl)c(CNCC(=O)O)n2)c1F |
| 220 to 230 | O=C1c2ccc(Cl)cc2C(O)N1c1ccc2ccc(Cl)nc2n1 (stereo not given) |
| 282 to 284 | COc1ccc2cc3c(c(-c4ccc(OC(F)(F)F)cc4)c2c1)C(=O)NC3=O |
| 110 to 111 | CCCCOCCOc1ccc(-c2ccc(N3CCC(COC(C)=O)C3)c(C=C(C)C(=O)O)c2)cc1 (stereo not given) |
| 202 | O=C(c1cccc(O)c1)c1sc2cc(O)ccc2c1-c1ccccc1 |
| 200 to 203 | CCCCc1nn(-c2cc(NC(=O)CC)ccc2Cl)c(=O)n1Cc1ccc(-c2ccccc2S(=O)(=O)NC(=O)c2c(F)cccc2Cl)cc1F |

| melting point [°C] | Structure (SMILES) |
| --- | --- |
| 58 to 59.5 | CCCc1c(OCCCCCCOc2ccc(C(=O)c3cccc(C(=O)OCC)c3)cc2CCC(=O)OCC)ccc2c1OCCC2=O |
| 190 to 193 | O=C(Nc1ccc2nc(CN3CCCC3)ccc2c1)c1ccc(-c2ccc(F)cc2)cc1 |
| 248 to 250 | CC(=O)Nc1cccc(-c2ccc3nncn3n2)c1 |
| 222 to 224 | Cc1cc(C2=CCN(S(=O)(=O)C(C)(C)C(=O)O)CC2)ccc1-c1cnc2ccccc2c1 |
| 127 to 131 | COc1ccc2c(c1)C(=O)C(=Cc1cccnc1)CO2 |
| 190 | O=C1c2ccc(OCCCO)cc2C(=O)c2ccc(OCCCO)cc21 |
| 181 to 184 | CC(C)(C)OC(=O)CN1C(=O)[C@@H](N2C(=O)c3ccccc3C2=O)CSc2ccccc21 |
| 178 to 179 | COc1ccc(CN(C)CCOc2ccc(NC(=O)c3cccc4c(=O)c5cccc(OC)c5[nH]c34)c(C)c2)cc1OC |
| 99 | CCCC(=O)NCCC1CCc2c(OC)ccc3ccc(OC)c1c23 (stereo not given) |
| 231 to 233 | c1ccc(-c2ccc(Nc3ncc(-c4ccccc4)s3)nc2)cc1 |
| 172 | NS(=O)(=O)c1ncccc1-c1ccccc1 |
| 90 to 91 | O=C1c2ccccc2C(=O)N1CCCCCCc1cnc2ccccc2c1 |
| 303 | Cc1nc(NC(=O)c2cnn3c(C(F)(F)F)cc(-c4ccc(C(F)(F)F)cc4)nc23)sc1S(N)(=O)=O |
| 241 to 243 | O=C1NCC(c2c[nH]c3ccccc23)C1c1cn2c3c(cccc13)CCC2 (stereo not given) |
| 120 to 123 | COc1ccccc1N1CCN(CCCCCS(=O)(=O)c2cccc3c(=O)c(C)c(-c4ccccc4)oc23)CC1 |
| 170 to 172 | O=C1C(=O)c2ccccc2C2=C1SCC1(CCN(Cc3ccccc3)CC1)O2 |

The next lines start with the molecule.

| Structure (SMILES) | melting point [°C] |
| --- | --- |
| Cc1ccc(C(=O)N2CCC(c3ccccc3)=N2)cn1 | 86 to 87 |
| CC(C)(C)NCCCCOc1ccccc1C(=O)Nc1cccc2[nH]ccc12 | 147 |
| Fc1ccc(-c2nc3occn3c2-c2ccnc(N[C@H]3CN4CCC3CC4)n2)cc1 | 217 to 218 |
| CN(CCc1ccc(NC(N)=S)cc1)Cc1ccccc1 | 119 to 122 |
| COC1C=C(C)C(=O)CC(C)(C)C1OC(=O)c1ccccc1C(=O)O (stereo not given) | 158 |
| CCCOc1ccc(Cl)cc1C1=NC(=O)C2=NC=NC2=N1 | 277 to 279 |
| Nc1cc(=O)n(Cc2cc(Cl)cc(Cl)c2)[nH]1 | 175 to 176 |
| CCc1cc2c(c(CC)n1)CCC(=O)N2Cc1ccc(-c2ccccc2-c2nnn(C(c3ccccc3)(c3ccccc3)c3ccccc3)n2)cc1 | 165 to 167 |
| N#Cc1cccnc1N1CCN(CNC(=O)c2ccccc2Cl)CC1 | 137 to 139 |
| O=C(O)Cn1cnnn1 | 125 to 127 |
| COc1cccc2c1nc(C(F)F)n2-c1nc(Nc2cncnc2)nc(N2CCOCC2)n1 | 293 to 295 |
| Nc1ccc2c(c1)OCC(CN1CC=C(c3c[nH]c4ccccc34)CC1)O2 (stereo not given) | 199 to 200 |
| CCCCCCCCCN(c1ccccc1)P(=O)(O)O | 64 to 65 |
| Cc1cc(N=CN(C)C)c(C)cc1O | 212 |
| NC(=O)c1ccc(OCCN(Cc2ccccc2)CC(O)c2ccc(OCc3ccccc3)c(OCc3ccccc3)c2)cc1 (stereo not given) | 110 to 111 |
| CN1C(=O)C(c2ccc(OC(F)F)cc2)(C23CC4CC(CC(C4)C2)C3)N=C1N (stereo not given) | 216 to 218 |
| Nc1nc(N)c(C(=O)n2ccnc2)nc1Cl | 232 to 234 |
| CCOC(=O)c1c(C)c(C(=O)O)c(C)n1C | 197 to 198 |
| Cc1cc2c(CCl)c(CO)c(Cl)nc2cc1Cl | 169 to 170 |

| Structure (SMILES) | melting point [°C] |
| --- | --- |
| N#CC(c1ccccn1)c1cccs1 (stereo not given) | 48 to 50 |
| OCCN1CCC(=C2c3ccccc3Oc3ccc(Br)cc32)CC1 | 142 to 146 |
| CC1(C)CCc2c1cc(C=O)c(O)c2Br | 77.5 to 78.5 |
| CC(NC(=O)c1cc(Cl)ccc1[N+](=O)[O-])C1CC1 (stereo not given) | 137 to 141 |
| CCOC(=O)NN=C(c1ccc(Cl)cc1)c1ccc(OP(=S)(OCC)OCC)cc1 | 106 |
| CC(C)(C)[Si](C)(C)O[C@@H]1C[C@]2(O)C[C@@H](OC2=O)C1=O | 92 to 95 |
| CN1CCC(c2c[nH]c3ccc(Sc4ccccn4)cc23)CC1 | 83 |
| O=C1c2c(O)ccc(O)c2C(=O)c2c(NCCN3CCCCC3)ccc(NCCN3CCCCC3)c21 | 219 to 221 |
| CCN(CC)CCNC(=O)N1CCC(S(=O)(=O)c2ccc(Cl)cc2)C1 (stereo not given) | 86 to 87.5 |
| Cc1noc(C)c1Cn1nnnc1-c1cccc(Cl)c1Cl | 176 to 178 |
| COc1ccc(OC)c2c1C[C@](C)(O)CC21SCCS1 | 152 to 153 |
| CCCCCCCCCC(=O)CCC(C)=O | 52 to 53 |
| O=C(SC1CCN(C(C(=O)C2CC2)c2ccccc2F)CC1)c1ccccc1 (stereo not given) | 55 to 59 |
| CC(=C1SCCS1)c1ccc(F)cc1 | 27 to 31 |
| N#CC=C(N)c1ccccc1C(F)(F)F | 101 to 103 |
| CNc1nc(C(N)=O)c(-c2ccncc2)s1 | 212 to 213 |
| CCCCNC(=O)NS(=O)(=O)c1ccc(CCNC(=O)N2CC(C)=CC2=O)cc1 | 189 to 191 |
| C[C@H]([C@](O)(Cn1cncn1)c1ccc(F)cc1F)S(=O)(=O)N1CCOCC1 | 157 to 158 |

Reference: a melting point compilation (Tetko et al.; mined from patent text by program, amines drawn as free bases though some values may be those of a salt)
